Measurements taken from patent US20260159474A1, “Aminoindane Compounds and Compositions and Methods of Their Therapeutic Use” (Solvonis Therapeutics Ireland Holdings Limited, priority 2021, published 2026).

Molecular target: T1, human P-glycoprotein transporter (MDCKII-MDR1 cells) (Homo sapiens, UniProt P08183)
T1 construct: expressed in transfected cells; host or cells: MDCKII-MDR1 (Madin-Darby Canine Kidney clone II)
Experiment: Bidirectional permeability and P-gp substrate assay in MDCKII-MDR1 cells
Type: in vitro ADME
Settings: for Permeability classification: by Papp; for P-gp Substrate?: efflux ratio >2 and reduced with GF120918 or in mock MDCKII cells; for Papp A→B at 60 min: dog, MDCK, read-out: MDCKII Permeability app A > B
Protocol: Methods: A bidirectional permeability study was conducted to evaluate the apparent permeability (Papp) of therapeutic compounds. Additionally, the MDCKII-MDR1 cell line (Madin-Darby Canine Kidney clone II cell line heterologously expressing the human P-glycoprotein transporter) and mock cell line MDCKII were used to determine whether a compound acted as a P-gp substrate, in the absence and in the presence of a potent P-gp inhibitor. Test control items (digoxin, metoprolol, and atenolol) and control P-gp inhibitor (GF120918) stock solution were prepared in DMSO. Bidirectional assays (Apical to Basolateral [AB] and Basolateral to Apical [BA]) were run, in both the absence and presence of P-gp inhibitor GF120918 in MDCKII-MDR1 and mock cell line MDCKII, using as transport buffer HBSSH at a pH of 7.4 (n=3).
Compounds were tested at a single concentration (i.e. at […]) at one time point (i.e. 60 min). Alternative concentrations or time points may also be investigated. As reference compounds, digoxin (P-gp substrate), atenolol (low permeability) and metoprolol (high permeability) were included at a single concentration (e.g., 10 or […]) and at single time point (e.g., 60 min). Digoxin transport was evaluated in two directions (apical-to-basolateral [AB] and basolateral-to-apical [BA]) in the absence and presence of GF120918 or in mock cells, MDCKII (n=3). Atenolol and metoprolol were only tested in the AB direction in absence of P-gp inhibitor GF120918 or in mock cells, MDCKII (n=3). The integrity of the cell monolayer was evaluated after the permeability experiment using the paracellular permeability marker Lucifer yellow (LY) in the apical to basolateral direction in each well.
MDCKII or MDCKII-MDR1 cells were cultivated in DMEM (high glucose, GlutaMAXTM supplemented with pyruvate, 10% FBS HI and Pen/Strep). Cells were seeded onto microporous PET (Polyethylene Terephthalate) membranes in HTS 96-Multiwell Insert plates at a density of ˜175,000-245,000 cells/cm^2 (25000-35000 cells/well; 50 μL/well) in DMEM medium and incubated for 3-4 days at 37° C.-5% CO2. Medium was changed the day before the experiment.
Stock solutions of test items were prepared in DMSO at a concentration of 5 or 10 mM and stored at −20° C. until use. The potent P-gp inhibitor, GF120918 (stock solution 10 mM) and the reference controls digoxin, atenolol, metoprolol (stock solutions 3 or 10 mM) were prepared in DMSO and stored at −20° C. until use.
Donor working solutions of test items and reference controls were prepared at a concentration of 10 or 25 µM, diluting the stock solutions in HBSSH. Receiver working solutions contained transport buffer only. All working solutions were prepared such that the final concentration of DMSO was 1% (v/v). A donor working solution containing LY was also prepared in transport buffer at 100 µM.
MDCKII and MDCKII-MDR1 cells were preincubated (37° C., 15 to 30 minutes) in receiver working solutions containing transport buffer on apical (A) and basolateral (B) sides. Following pre-incubation, test items and control items (digoxin) transport were measured in two directions (apical to basolateral [AB]) and basolateral to apical [BA]), and these directions were performed in triplicate sets of wells, in both the absence and presence of […] GF120918 or mock MDCKII cells. For [AB] directional transport, 75 μL of donor working solution was added to the A (apical) compartment and 235 μL of receiver working solution was added to the B (basolateral) compartment. For [BA] directional transport, 235 μL donor working solution with test items or reference controls was added to the B compartment and 75 μL receiver working solution was added to the A compartment. Transport of permeability reference controls, atenolol and metoprolol, were measured in one direction (apical to basolateral [AB]) (n=3).
The cells were incubated (at 37° C., with shaking) for 60 minutes. […]

[1] = apical to basolateral, pH 7.4, 60 min

T1 sequence (P08183 whole entry): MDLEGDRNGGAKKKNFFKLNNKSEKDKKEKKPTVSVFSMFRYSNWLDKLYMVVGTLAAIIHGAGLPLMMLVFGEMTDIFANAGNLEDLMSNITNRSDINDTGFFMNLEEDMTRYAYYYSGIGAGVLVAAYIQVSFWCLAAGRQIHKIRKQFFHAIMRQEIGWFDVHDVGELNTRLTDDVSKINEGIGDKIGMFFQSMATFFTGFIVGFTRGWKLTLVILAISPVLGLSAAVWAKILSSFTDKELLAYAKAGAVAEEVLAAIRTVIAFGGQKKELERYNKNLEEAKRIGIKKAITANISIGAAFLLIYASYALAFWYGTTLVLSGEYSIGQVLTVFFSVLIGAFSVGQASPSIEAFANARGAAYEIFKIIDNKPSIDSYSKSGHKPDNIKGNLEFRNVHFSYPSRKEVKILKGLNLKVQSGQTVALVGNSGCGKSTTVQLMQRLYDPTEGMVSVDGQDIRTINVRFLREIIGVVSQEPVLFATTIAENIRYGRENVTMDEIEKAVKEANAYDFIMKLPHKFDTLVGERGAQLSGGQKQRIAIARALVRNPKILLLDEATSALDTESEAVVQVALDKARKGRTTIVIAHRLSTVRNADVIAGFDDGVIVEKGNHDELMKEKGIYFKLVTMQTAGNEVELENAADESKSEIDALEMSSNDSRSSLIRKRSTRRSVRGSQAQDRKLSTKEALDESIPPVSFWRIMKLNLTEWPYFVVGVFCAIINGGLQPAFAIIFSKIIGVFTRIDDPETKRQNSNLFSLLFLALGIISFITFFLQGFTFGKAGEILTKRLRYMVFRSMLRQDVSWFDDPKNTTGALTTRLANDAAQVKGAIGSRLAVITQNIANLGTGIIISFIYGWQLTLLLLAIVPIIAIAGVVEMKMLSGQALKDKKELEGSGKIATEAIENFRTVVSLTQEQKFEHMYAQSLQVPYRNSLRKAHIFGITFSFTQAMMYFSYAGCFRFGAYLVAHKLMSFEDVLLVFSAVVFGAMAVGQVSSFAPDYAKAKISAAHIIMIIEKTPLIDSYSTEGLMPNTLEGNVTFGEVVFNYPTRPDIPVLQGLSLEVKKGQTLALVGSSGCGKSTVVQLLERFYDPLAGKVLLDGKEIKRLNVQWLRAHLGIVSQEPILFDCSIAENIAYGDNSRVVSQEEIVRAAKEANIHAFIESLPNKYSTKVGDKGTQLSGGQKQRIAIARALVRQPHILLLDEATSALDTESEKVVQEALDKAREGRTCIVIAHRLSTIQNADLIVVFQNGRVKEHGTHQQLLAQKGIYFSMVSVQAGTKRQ

| Compound | MDCKII Permeability app A > B [1] [×10⁻⁶ cm/s] | Permeability classification | P-gp Substrate? | MDCKII-MDR1 B-A ratio (efflux ratio, MDCKII-MDR1 cells) | Papp A→B at 60 min [1] [×10⁻⁶ cm/s] |
| --- | --- | --- | --- | --- | --- |
| CNC(C)Cc1ccc2c(c1)OCO2 (stereo not shown) [MDMA] | 14 | less permeable | No | 1.5 |  |
| COC(=O)c1ccc2c(c1)CC(N)C2 (stereo not shown) [CMP-405, 2-aminoindane-5-methylcarboxylate] |  | highly permeable | No |  | 16.2 |
| COc1ccc2c(c1)CC(N)C2 (stereo not shown) [MEAI, 5-methoxy-2-aminoindane] |  | highly permeable | No |  | 17.4 |
